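All cell lines were grown in 96-well plates and treated with compound for 48 hours. The concentration for full growth arrest is given as TGI.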
What was measured:
Assay in all cases: growth of human tumour cells (NCI), 48 h
DU-145 prostate = test system: DU-145 prostate
NCI-H522 lung = test system: NCI-H522 lung
T-47D breast = test system: T-47D breast
MOLT-4 leukemia = test system: MOLT-4 leukemia
EKVX NSCLC = test system: EKVX NSCLC
SK-MEL-28 melanoma = test system: SK-MEL-28 melanoma
NCI/ADR-RES ovarian = test system: NCI/ADR-RES ovarian
SNB-19 CNS = test system: SNB-19 CNS
UACC-257 melanoma = test system: UACC-257 melanoma
OVCAR-5 ovarian = test system: OVCAR-5 ovarian
UACC-62 melanoma = test system: UACC-62 melanoma
SR leukemia = test system: SR leukemia
RPMI-8226 leukemia = test system: RPMI-8226 leukemia
PC-3 prostate = test system: PC-3 prostate
MDA-MB-231 breast = test system: MDA-MB-231 breast
A549 NSCLC = test system: A549 NSCLC
MALME-3M melanoma = test system: MALME-3M melanoma
HCC-2998 colon = test system: HCC-2998 colon
U251 CNS = test system: U251 CNS
HOP-92 NSCLC = test system: HOP-92 NSCLC
KM12 colon = test system: KM12 colon
NCI-H460 lung = test system: NCI-H460 lung
M14 melanoma = test system: M14 melanoma
HL-60(TB) leukemia = test system: HL-60(TB) leukemia
NCI-H23 lung = test system: NCI-H23 lung
COLO 205 colon = test system: COLO 205 colon
HT29 colon = test system: HT29 colon
OVCAR-8 ovarian = test system: OVCAR-8 ovarian
SF-268 CNS = test system: SF-268 CNS
HCT-15 colon = test system: HCT-15 colon
ACHN renal = test system: ACHN renal
OVCAR-4 ovarian = test system: OVCAR-4 ovarian
SW-620 colon = test system: SW-620 colon
SN12C renal = test system: SN12C renal
SNB-75 CNS = test system: SNB-75 CNS
A498 renal = test system: A498 renal
IGROV1 ovarian = test system: IGROV1 ovarian
CAKI-1 renal = test system: CAKI-1 renal
NCI-H226 lung = test system: NCI-H226 lung
SK-OV-3 ovarian = test system: SK-OV-3 ovarian
HCT-116 colon = test system: HCT-116 colon
RXF 393 renal = test system: RXF 393 renal
HOP-62 NSCLC = test system: HOP-62 NSCLC
HS 578T breast = test system: HS 578T breast
CCRF-CEM leukemia = test system: CCRF-CEM leukemia
UO-31 renal = test system: UO-31 renal
SF-295 CNS = test system: SF-295 CNS
BT-549 breast = test system: BT-549 breast
SK-MEL-2 melanoma = test system: SK-MEL-2 melanoma
786-0 renal = test system: 786-0 renal
OVCAR-3 ovarian = test system: OVCAR-3 ovarian
SK-MEL-5 melanoma = test system: SK-MEL-5 melanoma
LOX IMVI melanoma = test system: LOX IMVI melanoma
TK-10 renal = test system: TK-10 renal
K-562 leukemia = test system: K-562 leukemia
MCF7 breast = test system: MCF7 breast
SF-539 CNS = test system: SF-539 CNS
MDA-MB-435 = test system: MDA-MB-435

Measured: TGI

NC(Cc1[nH]nc2ccccc12)C(=O)O (stereo not drawn)
> 100 µM: all assays above

From PubChem BioAssay (NCI)
